# Non-standard residues stand in square brackets, D forms with d. Residues, ends and D or L forms follow the SMILES beside them. Dab = NCC[C@H](N)C(=O)O; Abu = CC[C@H](N)C(=O)O
# Legend:
# HELA cells (Acc57) = experiment: Cytotoxicity assay, MTT reduction (LC 50, GI 50); format: cell-based
# How it was run: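 HeLa cells seeded at 7.0×10^3 cells/well, grown 24 h, then exposed to peptides at 12.5, 25 and 50 μM in triplicate for 48 h at 37 °C; MTT (0.5 mg/ml, 2 h), A595 read. Percent growth was taken relative to time-zero plates; LC50 and GI50 were interpolated by linear trend at −50% and 50% growth.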
# [1] = test system: human red blood cells (hRBC); experiment: Hemolysis; format: cell-based; conditions: 100
# [2] = Plasma stability, rat plasma; format: in vitro ADME
# P. aeruginosa ATCC 27853 = format: cell-based, Pseudomonas aeruginosa; conditions: ATCC 27853
# How it was run: (§1)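 Peptide activity was measured by a modified NCCLS broth microdilution method in Mueller-Hinton broth with 0.02% BSA. An inoculum adjusted against a 0.5 McFarland standard to about 10^6 CFU/ml was mixed 1:1 with two-fold serial peptide dilutions.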
# [3] = Plasma stability, human plasma; format: in vitro ADME
# [4] = test system: Pseudomonas aeruginosa P8191900; format: cell-based; conditions: P8191900
# How it was run: as §1
# [5] = test system: Pseudomonas aeruginosa IMP 1 Livermore 3140; format: cell-based; conditions: IMP 1 Livermore 3140
# How it was run: as §1
# [6] = test system: Pseudomonas aeruginosa P1021913; format: cell-based; conditions: P1021913
# How it was run: as §1
# [7] = test system: Pseudomonas aeruginosa P1021903; format: cell-based; conditions: P1021903
# How it was run: as §1
Compound,Cytotoxicity GI50 Hela cells (HELA cells (Acc57)),Hemolysis at 100 μg/ml [1],Stability rat Plasma t1/2 [2],MIC P. aeruginosa ATCC 27853 (P. aeruginosa ATCC 27853),Stability human Plasma t1/2 [3],MIC P. aeruginosa P8191900 [4],MIC P. aeruginosa IMP1 Livermore 3140 [5],MIC P. aeruginosa P1021913 [6],MIC P. aeruginosa P1021903 [7],Average MIC (P. aeruginosa)
CC[C@H](C)[C@@H]1NC(=O)[C@H](Cc2c[nH]c3ccccc23)NC(=O)[C@H]([C@@H](C)O)NC(=O)[C@@H]2CCCN2C(=O)[C@H]2CCCN2C(=O)[C@H](CCCCN)NC(=O)[C@H](C)NC(=O)[C@H](CCN)NC(=O)[C@H](CCN)NC(=O)[C@H](Cc2c[nH]c3ccccc23)NC(=O)[C@H](CCN)NC(=O)[C@H](CCN)NC(=O)[C@H](CCCCN)NC(=O)[C@H](CCN)NC1=O [Example 28] (cyclo(TWI[Dab]K[Dab][Dab]W[Dab][Dab]AK[dP]P)),50 µM,0.1%,5 h,0.04 µg/mL,5 h,0.10 µg/mL,0.24 µg/mL,0.16 µg/mL,0.07 µg/mL,0.12 µg/mL
CC[C@H](C)[C@@H]1NC(=O)[C@H](Cc2c[nH]c3ccccc23)NC(=O)[C@H](C)NC(=O)[C@@H]2CCCN2C(=O)[C@H]2CCCN2C(=O)[C@H](CCN)NC(=O)[C@H](C)NC(=O)[C@H](CCN)NC(=O)[C@H](CCN)NC(=O)[C@H](Cc2c[nH]c3ccccc23)NC(=O)[C@H](CCN)NC(=O)[C@H](CCN)NC(=O)[C@H](CCCCN)NC(=O)[C@H](CCN)NC1=O [Example 22] (cyclo(AWI[Dab]K[Dab][Dab]W[Dab][Dab]A[Dab][dP]P)),50 µM,0.2%,5 h,0.02 µg/mL,5 h,0.09 µg/mL,0.24 µg/mL,0.16 µg/mL,0.09 µg/mL,0.12 µg/mL
CC[C@H](C)[C@@H]1NC(=O)[C@H](Cc2c[nH]c3ccccc23)NC(=O)[C@H]([C@@H](C)O)NC(=O)[C@@H]2CCCN2C(=O)[C@H]2CCCN2C(=O)[C@H](CCN)NC(=O)CNC(=O)[C@H](CCN)NC(=O)[C@H](CCN)NC(=O)[C@H](Cc2c[nH]c3ccccc23)NC(=O)[C@H](CCN)NC(=O)[C@H](CCN)NC(=O)[C@H](CCCCN)NC(=O)[C@H](CCN)NC1=O [Example 2] (cyclo(TWI[Dab]K[Dab][Dab]W[Dab][Dab]G[Dab][dP]P)),50 µM,0.3%,5 h,0.04 µg/mL,5 h,0.10 µg/mL,0.24 µg/mL,0.18 µg/mL,0.16 µg/mL,0.15 µg/mL
CC[C@H](C)[C@@H]1NC(=O)[C@H](Cc2c[nH]c3ccccc23)NC(=O)[C@H]([C@@H](C)O)NC(=O)[C@@H]2CCCN2C(=O)[C@H]2CCCN2C(=O)[C@H](CCN)NC(=O)[C@H]([C@@H](C)O)NC(=O)[C@H](CCN)NC(=O)[C@H](CCN)NC(=O)[C@H](Cc2c[nH]c3ccccc23)NC(=O)[C@H](CCN)NC(=O)[C@H](CCN)NC(=O)[C@H](CCCCN)NC(=O)[C@H](CCN)NC1=O [Example 16] (cyclo(TWI[Dab]K[Dab][Dab]W[Dab][Dab]T[Dab][dP]P)),50 µM,0.1%,5 h,0.05 µg/mL,5 h,0.09 µg/mL,0.24 µg/mL,0.10 µg/mL,0.05 µg/mL,0.11 µg/mL
CC[C@@H]1NC(=O)[C@H](CCN)NC(=O)[C@H](CCN)NC(=O)[C@H](Cc2c[nH]c3ccccc23)NC(=O)[C@H](CCN)NC(=O)[C@H](CCN)NC(=O)[C@H](CCCCN)NC(=O)[C@H](CCN)NC(=O)[C@H]([C@@H](C)CC)NC(=O)[C@H](Cc2c[nH]c3ccccc23)NC(=O)[C@H]([C@@H](C)O)NC(=O)[C@@H]2CCCN2C(=O)[C@H]2CCCN2C(=O)[C@H](CCN)NC1=O [Example 6] (cyclo(TWI[Dab]K[Dab][Dab]W[Dab][Dab][Abu][Dab][dP]P)),50 µM,0.2%,5 h,0.05 µg/mL,5 h,0.10 µg/mL,0.24 µg/mL,0.16 µg/mL,0.09 µg/mL,0.13 µg/mL

# Source: patent US9521846B2, “Template-fixed peptidomimetics with antimicrobial activity” (priority 2006, dated 2016)
